The values below come from patent US4701455A, “Biopterin analogs” (Burroughs Wellcome Co., priority 1983, dated 1987).

Holding throughout (assay type): biochemical
Test [1] addresses T1, Tryptophan hydroxylase (Rattus norvegicus, UniProt Q8CGU9).
T1 construct: crude 30,000×g supernatant; from tissue
T1 sequence (Q8CGU9 1-485): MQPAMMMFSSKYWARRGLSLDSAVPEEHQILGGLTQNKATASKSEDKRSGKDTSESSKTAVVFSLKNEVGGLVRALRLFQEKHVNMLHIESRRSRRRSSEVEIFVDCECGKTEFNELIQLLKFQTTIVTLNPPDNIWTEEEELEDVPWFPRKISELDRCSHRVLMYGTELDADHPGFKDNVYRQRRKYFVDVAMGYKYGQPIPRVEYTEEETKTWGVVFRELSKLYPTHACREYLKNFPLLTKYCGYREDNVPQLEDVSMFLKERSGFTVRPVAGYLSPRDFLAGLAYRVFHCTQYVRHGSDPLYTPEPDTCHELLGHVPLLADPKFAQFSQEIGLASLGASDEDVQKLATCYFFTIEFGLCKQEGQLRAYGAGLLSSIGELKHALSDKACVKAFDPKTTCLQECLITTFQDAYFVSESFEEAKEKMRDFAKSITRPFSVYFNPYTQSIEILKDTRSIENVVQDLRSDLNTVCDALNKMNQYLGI
Description: Tryptophan hydroxylase cofactor assay. The note with it: relative to tetrahydrobiopterin = 100. The method, then: Trytophan hydroxylase was assayed according to a modification of the method of Renson J., et al (Biochem. Biophys. Acta 25: 504 (1966)). The preparation of tryptophan hydroxylase was a crude 30,000×g supernatant which had been desalted on a Sephadex G-25 (Trade Name) column (Boadle-Biker, M.C., Biochem Pharmacol. 28: 2129 (1979).

For test [2], the target named is T2, Phenylalanine hydroxylase (Rattus norvegicus, UniProt P04176).
T2 construct: Phenylalanine hydroxylase was prepared from rat liver; from tissue; host or cells: rat liver
T2 sequence (P04176 1-453): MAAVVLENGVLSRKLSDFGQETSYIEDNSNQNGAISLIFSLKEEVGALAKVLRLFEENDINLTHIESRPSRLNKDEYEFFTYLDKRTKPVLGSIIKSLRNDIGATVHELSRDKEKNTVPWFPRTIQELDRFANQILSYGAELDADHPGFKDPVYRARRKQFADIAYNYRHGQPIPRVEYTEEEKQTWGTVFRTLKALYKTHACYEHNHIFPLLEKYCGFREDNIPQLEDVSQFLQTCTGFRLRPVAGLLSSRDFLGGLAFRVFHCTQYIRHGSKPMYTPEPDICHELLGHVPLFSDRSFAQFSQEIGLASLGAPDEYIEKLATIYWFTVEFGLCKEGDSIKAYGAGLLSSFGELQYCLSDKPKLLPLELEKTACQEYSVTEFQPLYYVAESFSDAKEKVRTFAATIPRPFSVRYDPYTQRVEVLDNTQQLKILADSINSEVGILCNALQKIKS
Description: Phenylalanine hydroxylase cofactor assay. The note with it: rat liver enzyme; relative to tetrahydrobiopterin = 100. The method, then:
Phenylalanine hydroxylase was measured as described in Shiman, R. et al., (J. Biol. Chem. 254: 11300 (1979)) except that the product of the reaction (tyrosine) was measured fluorometrically using the method of Waalkes, T. P. and Udenfriend, S. (J. Lab. Clin. Med. 50: 733 (1957). Phenylalanine hydroxylase was prepared from rat liver using hydrophobic chromatography (Shiman, R. et al. (J. Biol. Chem. 254: 11,300 (1979)). The specific activity of the enzyme, using BH4 as the co-factor, was 1.0 μmol/mg protein per minute at 37°.

Test [3] has as its target Tyrosine hydroxylase (Homo sapiens, UniProt P07101). Description: Tyrosine hydroxylase cofactor assay. The note with it: relative to tetrahydrobiopterin = 100. How it is done:
Tyrosine hydroxylate was partially purified through a 25-45% ammonium sulfate fraction. […] The enzyme was assayed by a modification of the method of Nagatsu, T., Levitt, M., and Udenfriend, S. (Anal. Biochem. 9, 122, (1964)) where the Dowex chromatography step was replaced by a charcoal extraction.

The target of test [4] is T3, bovine liver DHFR (Bos taurus, UniProt P00376).
T3 construct: bovine liver DHFR; from tissue; host or cells: bovine liver
T3 sequence (P00376 1-187): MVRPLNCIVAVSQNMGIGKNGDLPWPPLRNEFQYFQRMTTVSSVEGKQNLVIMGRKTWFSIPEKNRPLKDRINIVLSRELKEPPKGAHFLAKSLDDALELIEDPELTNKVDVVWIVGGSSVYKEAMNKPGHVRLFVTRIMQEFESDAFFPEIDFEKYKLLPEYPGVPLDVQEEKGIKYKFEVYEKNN
Kind of test: Dihydrofolate reductase assay. The note with it: for Dihydrofolate reductase V: 7,8-dihydro form, relative to 7,8-dihydrobiopterin = 100, bovine liver DHFR. How it is done: These assays were carried out on the 7,8-dihydropterin analogs of the compounds of formula I which was tetrahydropterins. The 7,8-dihydropterinswere obtained commercially (in the case of dihydrobiopterin) or synthesized from the corresponding compound of formula I. Synthesis of 7,8-dihydropterins involved the combination of 0.27 μmole of a compound of formula I, 20 μg of horseradish peroxidase, 0.6 μmole of hydrogen peroxide in 0.1 ml of 0.5M potassium phosphate buffer, pH 7.5. After 3 min at room temperature, 10 μg of bovine liver catalase was added. The production of the 7,8-dihydropterin was verified by U.V. spectroscopy.
The assay was carried out with bovine liver DHFR using a modification of the method of Bailey and Ayling (J. Biol. Chem., 253, 1598 (1978)) where the desired dihydropterin replaced dihydrobiopterin, and the HPLC system used consisted of an anaerobic 0.1M acetic acid (with or without 10% acetonitrite) solvent on a 25 cm×4.6 mm Dupont TMS-Zorbax column. In our hands, dihydrobiopterin is reduced at a rate 2.5% that of the natural substrate dihydrofolate.

The test system of test [5] is Dihydropteridine reductase. Kind of test: Dihydropteridine reductase assay. The note with it: quinonoid dihydro form; relative to tetrahydrobiopterin form = 100. How it is done: Dihydropteridine reductase was assayed by the method of Craine, et al., (J. Biol. Chem., 247, 6082 (1972)).

Chain of Tyrosine hydroxylase (P07101 whole entry): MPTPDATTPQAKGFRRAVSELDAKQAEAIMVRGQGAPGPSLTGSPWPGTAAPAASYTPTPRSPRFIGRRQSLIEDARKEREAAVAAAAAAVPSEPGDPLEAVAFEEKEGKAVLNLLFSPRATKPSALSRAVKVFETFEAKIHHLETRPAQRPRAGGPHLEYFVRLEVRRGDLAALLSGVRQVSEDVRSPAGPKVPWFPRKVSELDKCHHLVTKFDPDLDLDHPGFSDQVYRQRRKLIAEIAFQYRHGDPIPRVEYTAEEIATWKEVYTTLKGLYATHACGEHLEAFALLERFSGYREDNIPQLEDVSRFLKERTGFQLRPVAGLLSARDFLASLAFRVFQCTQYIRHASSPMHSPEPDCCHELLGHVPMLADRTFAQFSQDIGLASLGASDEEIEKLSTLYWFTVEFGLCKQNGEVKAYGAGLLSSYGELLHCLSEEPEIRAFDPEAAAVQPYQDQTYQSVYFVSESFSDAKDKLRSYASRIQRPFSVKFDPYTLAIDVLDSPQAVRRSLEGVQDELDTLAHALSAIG

`C[C@H](O)[C@H](O)[C@H]1CNc2nc(N)[nH]c(=O)c2N1` [Tetrahydrobiopterin] showed a Tryptophan hydroxylase Vmax in test [1] of 100%. Moreover, the Phenylalanine hydroxylase Vmax in test [2] was 100%. In test [3], the “Tyrosine hydroxylase Vmax” value came out at 100%. The “Dihydrofolate reductase V” value in test [4] is given as 100%. Also, in test [5], the “Dihydropteridine reductase Vmax” value worked out at 100%.
In the case of `COCC1CNc2nc(N)[nH]c(=O)c2N1` (racemic) [6-Methoxymethyl-tetrahydropterin, (+-)-2-Amino-5,6,7,8-tetrahydro-6-methoxymethyl-4(3H)-pteridinone], the Tryptophan hydroxylase Vmax in test [1] turned out to be 54%. In test [2], this compound gave a Phenylalanine hydroxylase Vmax of 79%. Further, the “Tyrosine hydroxylase Vmax” value in test [3] worked out at 124%. Also, the “Dihydrofolate reductase V” value in test [4] turned out to be 800%. In addition, the “Dihydropteridine reductase Vmax” value in test [5] was determined as 295%.
Take `C[C@H](O)[C@H](O)C1=Nc2c(nc(N)[nH]c2=O)NC1` [7,8-Dihydrobiopterin]: the “Rate of reduction by DHFR relative to dihydrofolate” value in test [4] (relative to natural substrate dihydrofolate) is on record as 2.5%.
